ChEMBL document CHEMBL4765450, “The components and activities analysis of a novel anticoagulant candidate dHG-5” (Eur J Med Chem, 2020)
Active and inactive are the calls of the source. The rule behind the calls is not given here.

Tests used:
[1] = test system: Plasma; assay: Induction of platelet aggregation in human platelet rich plasma at plasma peak concentration of 10 times anti-thrombosis ED50 measured after 10 mins by light transmission aggregometry
[2] = biological target: Prothrombin (Homo sapiens) (UniProt P00734); assay: Inhibition of factor 2a (unknown origin) at IC50 preincubated for 1 min followed by chromogenic substrate addition and measured for 2 mins in presence of AT-III; details: time 3.0 min
[3] = biological target: T1, Coagulation factor IX (Homo sapiens, UniProt P00740); assay: Inhibition of factor 9a (unknown origin) binding to immobilized biotinylated oHG-11 assessed as activity potency of oligosaccharides multiplied by the percentage of oligosaccharides in dHG-5 by biolayer interferometry relative to dHG-5
[4] = test system: Plasma; assay: Anticoagulation activity in AT-III-deficient human plasma preincubated for 2 mins followed by APTT reagent and measured after 3 mins by coagulometric method; assay type: functional, cell-free; details: time 5.0 min
[5] = test system: Plasma; assay: Induction of platelet aggregation in rat wash platelet at plasma peak concentration of 10 times anti-thrombosis ED50 measured after 10 mins by light transmission aggregometry
[6] = biological target: Coagulation factor XI (Homo sapiens) (UniProt P03951); assay: Inhibition of factor 11a (unknown origin) at IC50 using S-2366 as substrate preincubated for 1 min followed by chromogenic substrate addition and measured for 2 mins in presence of AT-III; details: time 3.0 min
[7] = biological target: Coagulation factor XI (Homo sapiens) (UniProt P03951); assay: Inhibition of factor 11a (unknown origin) at IC90 using S-2366 as substrate preincubated for 1 min followed by chromogenic substrate addition and measured for 2 mins in presence of AT-III; details: time 3.0 min
[8] = test system: Plasma; assay: Anticoagulation activity in HCII-deficient human plasma preincubated for 2 mins followed by APTT reagent and measured after 3 mins by coagulometric method; assay type: functional, cell-free; details: time 5.0 min
[9] = test system: Rattus norvegicus; assay: Antithrombotic activity in thromboplastin and stasis-induced Sprague-Dawley rat deep venous thrombosis model assessed as reduction in venous thrombosis by measuring activity potency of oligosaccharides multiplied by the percentage of oligosaccharides in dHG-5 at 4.94 mg/kg, sc administered 1 hr prior to thromboplastin addition for 20 secs followed by establishment of stasis for 20 mins relative to dHG-5; assay type: functional; details: time 80.33 min, 1.339 h
[10] = biological target: T2, Coagulation factor XII (Homo sapiens) (UniProt P00748); assay: Inhibition of factor 12a (unknown origin) at IC50 using kallikrein chromogenic substrate preincubated for 1 min followed by chromogenic substrate addition and measured for 2 mins; details: time 3.0 min
T2 sequence (whole entry): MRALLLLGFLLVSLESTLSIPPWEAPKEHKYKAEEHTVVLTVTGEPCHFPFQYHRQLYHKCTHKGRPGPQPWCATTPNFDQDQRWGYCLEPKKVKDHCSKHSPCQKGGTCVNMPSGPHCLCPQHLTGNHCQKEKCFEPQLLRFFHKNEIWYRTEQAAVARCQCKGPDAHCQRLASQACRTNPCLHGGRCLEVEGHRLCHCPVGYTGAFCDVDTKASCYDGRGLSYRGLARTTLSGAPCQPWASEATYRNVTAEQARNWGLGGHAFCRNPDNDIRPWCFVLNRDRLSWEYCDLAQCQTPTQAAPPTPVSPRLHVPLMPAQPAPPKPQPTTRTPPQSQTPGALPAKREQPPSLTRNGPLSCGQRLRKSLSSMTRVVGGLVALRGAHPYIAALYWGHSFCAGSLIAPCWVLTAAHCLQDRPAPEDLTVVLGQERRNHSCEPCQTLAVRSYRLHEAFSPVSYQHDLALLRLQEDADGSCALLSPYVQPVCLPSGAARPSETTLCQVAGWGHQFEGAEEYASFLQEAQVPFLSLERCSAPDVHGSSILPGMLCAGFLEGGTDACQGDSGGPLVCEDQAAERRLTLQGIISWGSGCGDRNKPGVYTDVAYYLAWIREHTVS

[11] = biological target: T3, Coagulation factor IX/VIII (Homo sapiens) (UniProt P00740+P00451); assay: (§1) Inhibition of human citrated plasma iXase (factor 8a-factor 9a complex) preincubated for 2 mins followed by factor 10 addition and measured after 1 min by FXa chromogenic substrate SXa-11 based assay relative to dHG-5; assay type: protein-complex assay; details: time 3.0 min
[12] = biological target: Prothrombin (Homo sapiens) (UniProt P00734); assay: Inhibition of factor 2a (unknown origin) at IC50 preincubated for 1 min followed by chromogenic substrate addition and measured for 2 mins; details: time 3.0 min
[13] = biological target: Coagulation factor X (Homo sapiens) (UniProt P00742); assay: Inhibition of factor 10a (unknown origin) at IC50 preincubated for 1 min followed by chromogenic substrate addition and measured for 2 mins in presence of AT-III; details: time 3.0 min
[14] = biological target: Coagulation factor X (Homo sapiens) (UniProt P00742); assay: Inhibition of factor 10a (unknown origin) at IC90 preincubated for 1 min followed by chromogenic substrate addition and measured for 2 mins in presence of AT-III relative to control; details: time 3.0 min
[15] = test system: Plasma; assay: Anticoagulation activity in human plasma assessed as drug level causing 20 times doubling of APTT by measuring activity potency of oligosaccharides multiplied by the percentage of oligosaccharides in dHG-5 preincubated for 2 mins followed by APTT reagent and measured after 3 mins by coagulometric method relative to dHG-5; assay type: functional; details: time 5 min
[16] = biological target: Coagulation factor X (Homo sapiens) (UniProt P00742); assay: Inhibition of factor 10a (unknown origin) at IC50 preincubated for 1 min followed by chromogenic substrate addition and measured for 2 mins; details: time 3.0 min
[17] = test system: Rattus norvegicus; assay: Antithrombotic activity in thromboplastin and stasis-induced Sprague-Dawley rat deep venous thrombosis model assessed as reduction in venous thrombosis at 4.94 mg/kg, sc administered 1 hr prior to thromboplastin addition for 20 secs followed by establishment of stasis for 20 mins relative to dHG-5; assay type: functional; details: time 80.33 min, 1.339 h
[18] = biological target: T2, Coagulation factor XII (Homo sapiens); assay: Inhibition of factor 12a (unknown origin) at IC50 using kallikrein chromogenic substrate preincubated for 1 min followed by chromogenic substrate addition and measured for 2 mins in presence of AT-III; details: time 3.0 min
[19] = test system: Plasma; assay: Anticoagulation activity in human plasma assessed as drug level causing 20 times doubling of APTT preincubated for 2 mins followed by APTT reagent and measured after 3 mins by coagulometric method relative to dHG-5; assay type: functional; details: time 5 min
[20] = biological target: Coagulation factor XI (Homo sapiens) (UniProt P03951); assay: Inhibition of factor 11a (unknown origin) at IC50 using S-2366 as substrate preincubated for 1 min followed by chromogenic substrate addition and measured for 2 mins; details: time 3.0 min
[21] = biological target: T4, Coagulation factor VII (Homo sapiens) (UniProt P08709); assay: Inhibition of factor 7a (unknown origin) at IC50 using pefachrome factor VIIa as substrate preincubated for 1 min followed by chromogenic substrate addition and measured for 2 mins in presence of AT-III; details: time 3.0 min
T4 sequence (whole entry): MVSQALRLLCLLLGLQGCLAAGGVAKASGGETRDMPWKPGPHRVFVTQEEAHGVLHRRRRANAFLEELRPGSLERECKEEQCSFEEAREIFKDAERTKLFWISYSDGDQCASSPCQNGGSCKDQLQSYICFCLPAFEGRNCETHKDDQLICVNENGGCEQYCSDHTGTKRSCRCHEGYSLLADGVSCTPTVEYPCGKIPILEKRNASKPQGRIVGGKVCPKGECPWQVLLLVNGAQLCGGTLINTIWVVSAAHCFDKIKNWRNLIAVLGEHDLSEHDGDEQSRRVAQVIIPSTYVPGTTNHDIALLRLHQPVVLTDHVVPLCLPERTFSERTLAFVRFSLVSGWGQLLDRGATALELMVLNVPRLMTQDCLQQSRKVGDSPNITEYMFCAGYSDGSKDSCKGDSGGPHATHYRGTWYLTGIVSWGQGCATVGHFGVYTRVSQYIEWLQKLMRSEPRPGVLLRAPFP

[22] = biological target: Prothrombin (Homo sapiens) (UniProt P00734); assay: Inhibition of factor 2a (unknown origin) at IC90 preincubated for 1 min followed by chromogenic substrate addition and measured for 2 mins in presence of AT-III; details: time 3.0 min
[23] = biological target: T1, Coagulation factor IX; assay: Inhibition of factor 9a (unknown origin) binding to immobilized biotinylated oHG-11 by biolayer interferometry relative to dHG-5
[24] = biological target: T3, Coagulation factor IX/VIII (Homo sapiens); assay: as §1, with “complex) assessed as activity potency of oligosaccharides multiplied by the percentage of oligosaccharides in dHG-5” for “complex)”; assay type: protein-complex assay; details: time 3.0 min
[25] = biological target: T4, Coagulation factor VII (Homo sapiens); assay: Inhibition of factor 7a (unknown origin) at IC50 using pefachrome factor VIIa as substrate preincubated for 1 min followed by chromogenic substrate addition and measured for 2 mins; details: time 3.0 min
[26] = test system: Rattus norvegicus; assay: Antithrombotic activity in thromboplastin and stasis-induced Sprague-Dawley rat deep venous thrombosis model assessed as reduction in venous thrombosis at 3.64 mg/kg, sc administered 1 hr prior to thromboplastin addition for 20 secs followed by establishment of stasis for 20 mins relative to dHG-5; assay type: functional; details: time 80.33 min, 1.339 h
[27] = test system: Rattus norvegicus; assay: Antithrombotic activity in thromboplastin and stasis-induced Sprague-Dawley rat deep venous thrombosis model assessed as reduction in venous thrombosis by measuring activity potency of oligosaccharides multiplied by the percentage of oligosaccharides in dHG-5 at 3.64 mg/kg, sc administered 1 hr prior to thromboplastin addition for 20 secs followed by establishment of stasis for 20 mins relative …; assay type: functional; details: time 80.33 min, 1.339 h

T1 sequence (P00740 47-191 limits assumed): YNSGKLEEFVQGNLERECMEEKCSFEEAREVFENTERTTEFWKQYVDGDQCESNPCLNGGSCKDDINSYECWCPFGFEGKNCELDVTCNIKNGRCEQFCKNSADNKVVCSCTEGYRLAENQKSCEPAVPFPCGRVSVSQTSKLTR
T1 sequence (P00740 227-461 limits assumed): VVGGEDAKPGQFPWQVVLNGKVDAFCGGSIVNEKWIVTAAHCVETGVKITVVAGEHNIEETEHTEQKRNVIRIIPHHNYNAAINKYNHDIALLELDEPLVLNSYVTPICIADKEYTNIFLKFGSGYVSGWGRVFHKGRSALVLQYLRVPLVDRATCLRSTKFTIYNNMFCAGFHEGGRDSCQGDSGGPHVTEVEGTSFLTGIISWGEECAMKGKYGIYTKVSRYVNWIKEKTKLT
Chain of Coagulation factor X (Homo sapiens) (P00742 41-179 limits assumed): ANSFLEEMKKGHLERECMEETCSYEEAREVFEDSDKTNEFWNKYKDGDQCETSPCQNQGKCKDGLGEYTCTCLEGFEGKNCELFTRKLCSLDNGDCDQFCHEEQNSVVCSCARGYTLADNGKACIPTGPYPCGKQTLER
Chain of Coagulation factor X (Homo sapiens) (P00742 235-488 limits assumed): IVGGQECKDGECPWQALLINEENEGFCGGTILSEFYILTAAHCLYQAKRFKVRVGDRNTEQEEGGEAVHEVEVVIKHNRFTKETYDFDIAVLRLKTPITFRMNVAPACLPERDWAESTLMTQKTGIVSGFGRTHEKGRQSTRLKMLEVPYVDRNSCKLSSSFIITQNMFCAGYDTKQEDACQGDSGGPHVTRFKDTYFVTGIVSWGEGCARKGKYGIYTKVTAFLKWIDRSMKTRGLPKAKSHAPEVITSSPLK
Chain of Coagulation factor XI (Homo sapiens) (P03951 19-387 limits assumed): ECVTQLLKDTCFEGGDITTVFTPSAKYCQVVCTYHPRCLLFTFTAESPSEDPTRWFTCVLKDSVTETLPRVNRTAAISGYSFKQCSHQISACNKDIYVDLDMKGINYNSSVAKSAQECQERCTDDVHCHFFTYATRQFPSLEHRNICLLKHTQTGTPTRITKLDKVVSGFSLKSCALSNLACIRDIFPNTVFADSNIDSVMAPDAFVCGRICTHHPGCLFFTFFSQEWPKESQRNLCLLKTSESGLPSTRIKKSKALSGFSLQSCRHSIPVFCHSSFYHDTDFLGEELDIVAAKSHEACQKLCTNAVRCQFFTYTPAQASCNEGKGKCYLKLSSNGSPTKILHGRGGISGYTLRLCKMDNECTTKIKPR
Chain of Coagulation factor XI (Homo sapiens) (P03951 388-625 limits assumed): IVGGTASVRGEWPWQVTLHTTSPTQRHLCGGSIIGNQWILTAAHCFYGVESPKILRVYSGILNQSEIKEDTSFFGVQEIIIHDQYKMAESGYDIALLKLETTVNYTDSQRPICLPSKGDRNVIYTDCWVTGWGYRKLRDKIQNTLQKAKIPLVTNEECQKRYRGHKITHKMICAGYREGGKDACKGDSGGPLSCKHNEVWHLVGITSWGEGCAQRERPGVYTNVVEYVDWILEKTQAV

CC(=O)N[C@H]1[C@H](O[C@@H]([C@H](O[C@@H]2O[C@@H](C)[C@@H](OS(=O)(=O)[O-])[C@@H](OS(=O)(=O)O)[C@@H]2O)[C@@H](O)CO)[C@H](O)C(=O)[O-])O[C@@H](COS(=O)(=O)[O-])[C@H](OS(=O)(=O)[O-])[C@@H]1O[C@@H]1O[C@H](C(=O)[O-])[C@@H](O[C@@H]2O[C@H](COS(=O)(=O)[O-])[C@H](OS(=O)(=O)[O-])[C@H](O[C@@H]3OC(C(=O)[O-])=C[C@H](O[C@@H]4O[C@@H](C)[C@@H](OS(=O)(=O)[O-])[C@@H](S(=O)(=O)O)[C@@H]4O)[C@H]3O)[C@H]2NC(C)=O)[C@H](O[C@@H]2O[C@@H](C)[C@@H](OS(=O)(=O)[O-])[C@@H](OS(=O)(=O)O)[C@@H]2O)[C@@H]1O.[Na+].[Na+].[Na+].[Na+].[Na+].[Na+].[Na+].[Na+].[Na+].[Na+]
Activity [1]: Not Active
inhibition [2]: inactive
Ratio [3]: 2.27 U
Activity [4]: Active
Activity [5]: Not Active
inhibition [6]: inactive
inhibition [7]: Active
Activity [8]: Active
Ratio [9]: 4.23 U
inhibition [10]: inactive
Ratio [11]: 8.98 U
inhibition [12]: inactive
inhibition [13]: inactive
inhibition [14]: 14.2%
Ratio [15]: 1.91 U
inhibition [16]: inactive
Ratio [17]: 24.31 U
inhibition [18]: inactive
Ratio [19]: 10.96 U
inhibition [20]: inactive
inhibition [21]: inactive
inhibition [22]: Active
Ratio [23]: 13 U
Ratio [24]: 1.56 U
inhibition (active/not active) [25]: inactive

CC(=O)N[C@H]1[C@H](O[C@@H]([C@H](O[C@@H]2O[C@@H](C)[C@@H](OS(=O)(=O)[O-])[C@@H](O)[C@@H]2OS(=O)(=O)O)[C@@H](O)CO)[C@H](O)C(=O)[O-])O[C@H](COS(=O)(=O)[O-])[C@H](OS(=O)(=O)[O-])[C@@H]1O[C@@H]1O[C@H](C(=O)[O-])[C@@H](O[C@@H]2O[C@H](COS(=O)(=O)[O-])[C@H](OS(=O)(=O)[O-])[C@H](O[C@@H]3O[C@H](C(=O)[O-])[C@@H](O[C@@H]4O[C@H](COS(=O)(=O)[O-])[C@H](OS(=O)(=O)[O-])[C@H](O[C@@H]5OC(C(=O)[O-])=C[C@H](O[C@@H]6O[C@@H](C)[C@@H](OS(=O)(=O)[O-])[C@@H](OS(=O)(=O)O)[C@@H]6O)[C@H]5O)[C@H]4NC(C)=O)[C@H](O[C@@H]4O[C@@H](C)[C@@H](OS(=O)(=O)[O-])[C@@H](O)[C@@H]4OS(=O)(=O)O)[C@H]3O)[C@H]2NC(C)=O)[C@H](O[C@@H]2O[C@@H](C)[C@@H](OS(=O)(=O)[O-])[C@@H](O)[C@@H]2OS(=O)(=O)O)[C@H]1O.[Na+].[Na+].[Na+].[Na+].[Na+].[Na+].[Na+].[Na+].[Na+].[Na+].[Na+].[Na+].[Na+].[Na+]
inhibition [2]: inactive
Ratio [3]: 3.66 U
inhibition [6]: inactive
inhibition [7]: Active
inhibition [10]: inactive
Ratio [11]: 28.6 U
inhibition [12]: inactive
inhibition [13]: inactive
inhibition [14]: 14.2%
Ratio [15]: 4.92 U
inhibition [16]: inactive
Ratio [26]: 48.6 U
inhibition [18]: inactive
Ratio [27]: 8.55 U
Ratio [19]: 28.01 U
inhibition [20]: inactive
inhibition [21]: inactive
inhibition [22]: Active
Ratio [23]: 20.9 U
Ratio [24]: 5.02 U
inhibition (active/not active) [25]: inactive
